The source made the active and inactive calls. No rule for the calls is given here.
Tested on: CCRIS mutagenicity, Ames/micronucleus/aberration tests
Experiment: CCRIS mutagenicity studies
[1] = Test System: AMES SALMONELLA TYPHIMURIUM, Strain/Indicator: TA98, Metabolic Activation: NONE, Method: STANDARD PLATE
[2] = Test System: AMES SALMONELLA TYPHIMURIUM, Strain/Indicator: TA100, Metabolic Activation: NONE, Method: STANDARD PLATE

SMILES: Cl
- mutagenic call (End Point: IN VITRO CHROMOSOMAL ABERRATIONS, Test System: CHO-WBL CELLS, Metabolic Activation: NONE): active; positive (structural changes); osmolality of solution decisive factor
- mutagenic call (Test System: AMES SALMONELLA TYPHIMURIUM, Strain/Indicator: TA97, Metabolic Activation: NONE, Method: PREINCUBATION): inactive; negative
- mutagenic call (Test System: AMES SALMONELLA TYPHIMURIUM, Strain/Indicator: TA97, Metabolic Activation: NONE, Method: STANDARD PLATE): inactive; negative
- mutagenic call (Test System: AMES SALMONELLA TYPHIMURIUM, Strain/Indicator: TA97, Metabolic Activation: RAT, LIVER, S-9, AROCLOR 1254, Method: PREINCUBATION): inactive; negative
- mutagenic call (Test System: AMES SALMONELLA TYPHIMURIUM, Strain/Indicator: TA97, Metabolic Activation: RAT, LIVER, S-9, PHENOBARBITAL, Method: STANDARD PLATE): inactive; negative
- mutagenic call (Test System: AMES SALMONELLA TYPHIMURIUM, Strain/Indicator: TA98, Metabolic Activation: NONE, Method: PREINCUBATION): inactive; negative
- mutagenic call [1]: inactive; negative
- mutagenic call (Test System: AMES SALMONELLA TYPHIMURIUM, Strain/Indicator: TA98, Metabolic Activation: RAT, LIVER, S-9, KC 500, Method: PREINCUBATION): inactive; negative
- mutagenic call (Test System: AMES SALMONELLA TYPHIMURIUM, Strain/Indicator: TA98, Metabolic Activation: RAT, LIVER, S-9, PHENOBARBITAL, Method: STANDARD PLATE): inactive; negative
- mutagenic call (Test System: AMES SALMONELLA TYPHIMURIUM, Strain/Indicator: TA100, Metabolic Activation: NONE, Method: PREINCUBATION): inactive; negative
- mutagenic call [2]: inactive; negative
- mutagenic call (Test System: AMES SALMONELLA TYPHIMURIUM, Strain/Indicator: TA100, Metabolic Activation: RAT, LIVER, S-9, KC 500, Method: PREINCUBATION): inactive; negative
- mutagenic call (Test System: AMES SALMONELLA TYPHIMURIUM, Strain/Indicator: TA100, Metabolic Activation: RAT, LIVER, S-9, PHENOBARBITAL, Method: STANDARD PLATE): inactive; negative
- mutagenic call (Test System: AMES SALMONELLA TYPHIMURIUM, Strain/Indicator: TA102, Metabolic Activation: NONE, Method: PREINCUBATION): inactive; negative
- mutagenic call (Test System: AMES SALMONELLA TYPHIMURIUM, Strain/Indicator: TA102, Metabolic Activation: RAT, LIVER, S-9, AROCLOR 1254, Method: PREINCUBATION): inactive; negative
- mutagenic call (Test System: AMES SALMONELLA TYPHIMURIUM, Strain/Indicator: TA1535, Metabolic Activation: NONE, Method: PREINCUBATION): inactive; negative
- mutagenic call (Test System: AMES SALMONELLA TYPHIMURIUM, Strain/Indicator: TA1535, Metabolic Activation: NONE, Method: STANDARD PLATE): inactive; negative
- mutagenic call (Test System: AMES SALMONELLA TYPHIMURIUM, Strain/Indicator: TA1535, Metabolic Activation: RAT, LIVER, S-9, KC 500, Method: PREINCUBATION): inactive; negative
- mutagenic call (Test System: AMES SALMONELLA TYPHIMURIUM, Strain/Indicator: TA1535, Metabolic Activation: RAT, LIVER, S-9, PHENOBARBITAL, Method: STANDARD PLATE): inactive; negative
- mutagenic call (Test System: AMES SALMONELLA TYPHIMURIUM, Strain/Indicator: TA1537, Metabolic Activation: NONE, Method: PREINCUBATION): inactive; negative
- mutagenic call (Test System: AMES SALMONELLA TYPHIMURIUM, Strain/Indicator: TA1537, Metabolic Activation: NONE, Method: STANDARD PLATE): inactive; negative
- mutagenic call (Test System: AMES SALMONELLA TYPHIMURIUM, Strain/Indicator: TA1537, Metabolic Activation: RAT, LIVER, S-9, KC 500, Method: PREINCUBATION): inactive; negative
- mutagenic call (Test System: AMES SALMONELLA TYPHIMURIUM, Strain/Indicator: TA1537, Metabolic Activation: RAT, LIVER, S-9, PHENOBARBITAL, Method: STANDARD PLATE): inactive; negative
- mutagenic call (Test System: AMES SALMONELLA TYPHIMURIUM, Strain/Indicator: TA1538, Metabolic Activation: NONE, Method: PREINCUBATION): inactive; negative
- mutagenic call (Test System: AMES SALMONELLA TYPHIMURIUM, Strain/Indicator: TA1538, Metabolic Activation: NONE, Method: STANDARD PLATE): inactive; negative
- mutagenic call (Test System: AMES SALMONELLA TYPHIMURIUM, Strain/Indicator: TA1538, Metabolic Activation: RAT, LIVER, S-9, KC 500, Method: PREINCUBATION): inactive; negative
- mutagenic call (Test System: AMES SALMONELLA TYPHIMURIUM, Strain/Indicator: TA1538, Metabolic Activation: RAT, LIVER, S-9, PHENOBARBITAL, Method: STANDARD PLATE): inactive; negative
- mutagenic call (Test System: E. COLI, Strain/Indicator: WP2 UVRA, Metabolic Activation: NONE, Method: PREINCUBATION): inactive; negative
- mutagenic call (Test System: E. COLI, Strain/Indicator: WP2 UVRA, Metabolic Activation: NONE, Method: SPOT TEST): inactive; negative
- mutagenic call (Test System: E. COLI, Strain/Indicator: WP2 UVRA, Metabolic Activation: RAT, LIVER, S-9, KC 500, Method: PREINCUBATION): inactive; negative
- mutagenic call (Test System: MOUSE LYMPHOMA, Strain/Indicator: L5178Y (TK+/TK-), Metabolic Activation: NONE, Method: SUSPENSION/PLATE): inactive; negative
- mutagenic call (Test System: MOUSE LYMPHOMA, Strain/Indicator: L5178Y (TK+/TK-), Metabolic Activation: RAT, LIVER, S-9, AROCLOR 1254, Method: SUSPENSION/PLATE): active; positive
- mutagenic call (Test System: MOUSE LYMPHOMA, Strain/Indicator: L5178Y (TK+/TK-), Metabolic Activation: RAT, LIVER, S-9, Method: SUSPENSION/PLATE): active; positive

SMILES: O=[N+]([O-])c1cccc2c1ccc1cccc([N+](=O)[O-])c12
- mutagenic call (Test System: AMES SALMONELLA TYPHIMURIUM, Strain/Indicator: TA98(1,8-DNP6), Metabolic Activation: NONE, Method: STANDARD PLATE): active; positive
- mutagenic call (Test System: AMES SALMONELLA TYPHIMURIUM, Strain/Indicator: TA98(NR), Metabolic Activation: NONE, Method: STANDARD PLATE): active; positive
- mutagenic call [1]: active; positive
- mutagenic call [2]: active; positive
- mutagenic call (Test System: AMES SALMONELLA TYPHIMURIUM, Strain/Indicator: YG1021, Metabolic Activation: NONE, Method: STANDARD PLATE): active; positive
- mutagenic call (Test System: AMES SALMONELLA TYPHIMURIUM, Strain/Indicator: YG1024, Metabolic Activation: NONE, Method: STANDARD PLATE): active; positive
- mutagenic call (Test System: AMES SALMONELLA TYPHIMURIUM, Strain/Indicator: YG1026, Metabolic Activation: NONE, Method: STANDARD PLATE): active; positive
- mutagenic call (Test System: AMES SALMONELLA TYPHIMURIUM, Strain/Indicator: YG1029, Metabolic Activation: NONE, Method: STANDARD PLATE): active; positive

Source: PubChem BioAssay AID1259407 (Chemical Carcinogenesis Research Information System (CCRIS), 2018)
